Publication PMC6152224 (Molecules : A Journal of Synthetic Chemistry and Natural …, 2017)
Where a name gives a salt, the structure may show the parent alone. Read-outs that look alike come from different tables or passages of the source.

Experiments:
hAChE = target: T1, hAChE (Homo sapiens, UniProt P22303); assay: Kinetic study of AChE inhibition (Lineweaver-Burk, nonlinear regression); type: biochemical
T1 construct: purchased Sigma-Aldrich (Prague, Czech Republic)

[1] = Experimentally determined physicochemical values with Sirius T3 device
HepG2 cell line = assay: cells; type: cell-based, human; settings: read-out: IC50 ± SEM HepG2
ACHN cell line = assay: cells; type: cell-based, human; settings: read-out: IC50 ± SEM ACHN
SH-SY5Y cell line = assay: cells; type: cell-based, human; settings: read-out: IC50 ± SEM SH-SY5Y
in vitro = settings: PAMPA, pH 7.4
[2] = target: T2, human plasmatic BChE (hBChE) (Homo sapiens, UniProt P06276); assay: In vitro anti-cholinesterase assay (modified Ellman's method), hBChE; type: biochemical; settings: mean of at least three experiments; read-out: IC50 ± SEM hBChE
T2 construct: human plasmatic BChE (hBChE, E.C. 3.1.1.8, purchased from Sigma-Aldrich); purchased Sigma-Aldrich (Prague, Czech Republic); host or cells: human plasma
T2 sequence (P06276 29-602): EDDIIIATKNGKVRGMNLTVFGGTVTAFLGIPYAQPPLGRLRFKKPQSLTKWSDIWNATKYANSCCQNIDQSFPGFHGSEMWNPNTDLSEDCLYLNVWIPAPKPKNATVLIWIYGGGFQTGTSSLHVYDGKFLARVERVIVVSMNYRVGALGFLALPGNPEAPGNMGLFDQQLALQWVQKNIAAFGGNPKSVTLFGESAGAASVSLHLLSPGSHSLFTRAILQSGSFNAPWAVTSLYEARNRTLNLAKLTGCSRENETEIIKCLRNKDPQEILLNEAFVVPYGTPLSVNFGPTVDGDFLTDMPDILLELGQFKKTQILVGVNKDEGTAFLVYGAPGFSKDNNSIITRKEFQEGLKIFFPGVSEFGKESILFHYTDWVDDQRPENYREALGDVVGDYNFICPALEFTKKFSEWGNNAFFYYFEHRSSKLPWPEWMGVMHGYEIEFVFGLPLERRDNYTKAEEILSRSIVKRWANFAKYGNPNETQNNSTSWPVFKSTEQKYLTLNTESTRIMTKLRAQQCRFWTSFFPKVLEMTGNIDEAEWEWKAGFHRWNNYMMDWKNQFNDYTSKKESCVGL

[3] = PAMPA; taken from ref 52, 53; cited from earlier work
hBChE = settings: literature value; cited from earlier work
[4] = PAMPA, pH 7.4
AChE = tested on: AChE; set-up: method as in PMID 23480140; settings: versus THA and (−)-huperzine A; cited from earlier work
[5] = tested on: 3-nitropropionic acid (3-NP) intoxication; settings: 3-NP-induced assay, HupY pretreatment; cited from earlier work
[6] = tested on: HepG2, ACHN and SH-SY5Y cell lines; assay: cells; settings: Homo sapiens, 24 h, read-out: IC50 values for all the tested cell lines
[7] = MTT, cytotoxic profile assessed after 24 h

T1 sequence (P22303 32-614): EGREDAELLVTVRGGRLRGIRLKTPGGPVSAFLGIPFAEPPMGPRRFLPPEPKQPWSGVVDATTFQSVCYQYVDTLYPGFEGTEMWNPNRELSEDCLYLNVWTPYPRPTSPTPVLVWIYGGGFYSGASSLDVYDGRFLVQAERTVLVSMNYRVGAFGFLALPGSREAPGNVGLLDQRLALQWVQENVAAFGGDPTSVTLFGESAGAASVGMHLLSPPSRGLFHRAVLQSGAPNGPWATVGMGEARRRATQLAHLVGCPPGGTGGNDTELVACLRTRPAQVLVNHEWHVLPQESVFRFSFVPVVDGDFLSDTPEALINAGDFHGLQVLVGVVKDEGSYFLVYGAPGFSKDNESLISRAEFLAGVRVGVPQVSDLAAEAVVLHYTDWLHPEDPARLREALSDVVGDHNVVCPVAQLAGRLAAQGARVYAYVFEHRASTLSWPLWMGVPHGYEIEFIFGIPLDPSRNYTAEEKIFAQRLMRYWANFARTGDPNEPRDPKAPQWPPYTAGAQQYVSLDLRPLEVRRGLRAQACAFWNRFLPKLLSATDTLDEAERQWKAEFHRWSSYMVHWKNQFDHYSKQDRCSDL

## COc1ccc2nc3c(c(N)c2c1)C1CC(C)=CC(C3)C1 (racemic) [(±)-1·HCl, rac-6-Methoxy-15-methyl-10-azatetracyclo[11.3.1.0^2,11.0^4,9]heptadeca-2(11),3,5,7,9,14-hexaen-3-amine hydrochloride]
hAChE; enzyme-substrate complex, inhibitor 1.00, 10.0 and 100 µM
  Ki': 3.67 ± 0.42 µM
hAChE; nonlinear regression, sum-of-squares F-test, p < 0.05
  type of inhibition: mixed type of inhibition
[1]; pH 7.4, read-out: logD7.4 (experimental)
  logD: 1.73
[1]; read-out: logP (experimental)
  logP: 3.58
[1]; read-out: pKa (experimental)
  pKa: 9.54
HepG2 cell line; Homo sapiens, HepG2, 24 h
  IC50: 14.91 ± 0.11 µM
ACHN cell line; Homo sapiens, ACHN, 24 h
  IC50: 32.2 ± 0.72 µM
SH-SY5Y cell line; Homo sapiens, SH-SY5Y, 24 h
  IC50: 17.84 ± 0.09 µM
In vitro
  Papp at 100 µM: 7.64 ± 0.22 ×10⁻⁶ cm/s

## CC1=CC2Cc3nc4cc(Cl)ccc4c(N)c3C(C1)C2 (racemic) [(±)-HupY·HCl, rac-7-Chloro-15-methyl-10-azatetracyclo[11.3.1.0^2,11.0^4,9]heptadeca-2(11),3,5,7,9,14-hexaen-3-amine hydrochloride]
[2]
  IC50: 0.358 ± 0.025 µM
HepG2 cell line; Homo sapiens, HepG2, 24 h
  IC50: 15.9 ± 1.17 µM
ACHN cell line; Homo sapiens, ACHN, 24 h
  IC50: 24.6 ± 0.32 µM
SH-SY5Y cell line; Homo sapiens, SH-SY5Y, 24 h
  IC50: 17.5 ± 0.44 µM
In vitro
  Papp: 5.89 ± 0.36 ×10⁻⁶ cm/s

## Nc1c2c(nc3cc(Cl)ccc13)CCCC2 [6-chlorotacrine]
HepG2 cell line
  IC50: 43.2 ± 1.17 µM
ACHN cell line; [7]
  IC50: 55.1 ± 1.76 µM
SH-SY5Y cell line; [7]
  IC50: 50.4 ± 1.28 µM
[3]
  Pe ± SEM: 5.00 ± 0.45 ^c 10^−6 cm·s^−1

## CC1=C[C@H]2Cc3nc4cc(Cl)ccc4c(N)c3[C@@H](C1)C2 [(+)-HupY]
hBChE
  IC50: 0.153 µM

## CC1=C[C@@H]2Cc3nc4cc(Cl)ccc4c(N)c3[C@H](C1)C2 [(−)-HupY]
hBChE
  IC50: 0.247 µM

## CO/N=C(\C(=O)N[C@@H]1C(=O)N2C(C(=O)O)=C(COC(N)=O)CS[C@H]12)c1ccco1 [Cefuroxim, cefuroxime]
[4]
  Pe ± SEM: 2.70 ± 0.1 10^−6 cm·s^−1

## COc1ccc2nc3c(c(N)c2c1)CCCC3 [Compound 7-MEOTA, 7-methoxytacrine]
HepG2 cell line; Homo sapiens, HepG2, 24 h
  IC50: 44.4 ± 3.35 µM
ACHN cell line; Homo sapiens, ACHN, 24 h
  IC50: 49.3 ± 2.69 µM
SH-SY5Y cell line; Homo sapiens, SH-SY5Y, 24 h
  IC50: 26.8 ± 1.04 µM
In vitro
  Papp: 6.5 ± 1.85 ×10⁻⁶ cm/s

## CCC1=CC2Cc3nc4cc(Cl)ccc4c(N)c3[C@@H](C1)C2 [HupX]
AChE
  AChE inhibition potency relative to the parent structures: more than 100 times

## CC1=CC2Cc3nc4cc(Cl)ccc4c(N)c3C(C1)C2 (centres unmarked) [HupY]
[5]
  survival of pretreated mice: increased the survival

## CN1C(C(=O)Nc2ccccn2)=C(O)c2ccccc2S1(=O)=O [Piroxicam, piroxicam]
[4]
  Pe ± SEM: 2.20 ± 0.15 10^−6 cm·s^−1

## Nc1c2c(nc3ccccc13)CCCC2 [THA, 1,2,3,4-tetrahydro-9-aminoacridine]
ACHN cell line; Homo sapiens, ACHN, 24 h
  IC50: 155.2 ± 0.67 µM
SH-SY5Y cell line; Homo sapiens, SH-SY5Y, 24 h
  IC50: 121 ± 1.97 µM
[3]
  Pe ± SEM: 5.30 ± 0.20 ^c 10^−6 cm·s^−1
[6]
  IC50: 120 to 168 µM
